The data set has as its target UBE2K. Description: reporter assay of Huesken 2005. The note with it: siRNA.

Oligonucleotides are given in HELM: sugar(base)linkage, 5' to 3'; d 2'-deoxyribose, r ribose, m 2'-O-methylribose, p phosphate. ss, as = sense and antisense strand

From the OligoGym collection come the findings set out here.
Also: test concentration or dose not given here.

The substance “RNA1{r(G)p.r(G)p.r(C)p.r(A)p.r(G)p.r(C)p.r(U)p.r(G)p.r(C)p.r(A)p.r(A)p.r(U)p.r(G)p.r(A)p.r(C)p.r(U)p.r(C)p.r(U)p.r(C)p.d(T)p.d(T)}|RNA2{r(G)p.r(A)p.r(G)p.r(A)p.r(G)p.r(U)p.r(C)p.r(A)p.r(U)p.r(U)p.r(G)p.r(C)p.r(A)p.r(G)p.r(C)p.r(U)p.r(G)p.r(C)p.r(C)p.d(C)p.d(A)}$$$RNA1{StrandType:ss}|RNA2{StrandType:as}$” came in with a normalised inhibition (eCFP-eYFP dual reporter) of 57.6%.

“RNA1{r(A)p.r(G)p.r(A)p.r(C)p.r(A)p.r(C)p.r(A)p.r(C)p.r(C)p.r(A)p.r(U)p.r(A)p.r(U)p.r(G)p.r(A)p.r(A)p.r(G)p.r(G)p.r(A)p.d(T)p.d(T)}|RNA2{r(U)p.r(C)p.r(C)p.r(U)p.r(U)p.r(C)p.r(A)p.r(U)p.r(A)p.r(U)p.r(G)p.r(G)p.r(U)p.r(G)p.r(U)p.r(G)p.r(U)p.r(C)p.r(U)p.d(G)p.d(G)}$$$RNA1{StrandType:ss}|RNA2{StrandType:as}$”: the normalised inhibition (eCFP-eYFP dual reporter) was found to be 81%. In the case of “RNA1{r(A)p.r(A)p.r(G)p.r(U)p.r(A)p.r(G)p.r(A)p.r(U)p.r(C)p.r(U)p.r(U)p.r(G)p.r(U)p.r(A)p.r(G)p.r(A)p.r(U)p.r(G)p.r(A)p.d(T)p.d(T)}|RNA2{r(U)p.r(C)p.r(A)p.r(U)p.r(C)p.r(U)p.r(A)p.r(C)p.r(A)p.r(A)p.r(G)p.r(A)p.r(U)p.r(C)p.r(U)p.r(A)p.r(C)p.r(U)p.r(U)p.d(T)p.d(A)}$$$RNA1{StrandType:ss}|RNA2{StrandType:as}$” it was 88.9%; in that of “RNA1{r(C)p.r(C)p.r(A)p.r(G)p.r(A)p.r(U)p.r(G)p.r(A)p.r(U)p.r(C)p.r(C)p.r(A)p.r(C)p.r(A)p.r(G)p.r(G)p.r(A)p.r(U)p.r(G)p.d(T)p.d(T)}|RNA2{r(C)p.r(A)p.r(U)p.r(C)p.r(C)p.r(U)p.r(G)p.r(U)p.r(G)p.r(G)p.r(A)p.r(U)p.r(C)p.r(A)p.r(U)p.r(C)p.r(U)p.r(G)p.r(G)p.d(C)p.d(T)}$$$RNA1{StrandType:ss}|RNA2{StrandType:as}$”, 66.7%; in that of “RNA1{r(U)p.r(U)p.r(G)p.r(U)p.r(A)p.r(G)p.r(A)p.r(U)p.r(G)p.r(A)p.r(G)p.r(A)p.r(A)p.r(U)p.r(U)p.r(U)p.r(U)p.r(A)p.r(C)p.d(T)p.d(T)}|RNA2{r(G)p.r(U)p.r(A)p.r(A)p.r(A)p.r(A)p.r(U)p.r(U)p.r(C)p.r(U)p.r(C)p.r(A)p.r(U)p.r(C)p.r(U)p.r(A)p.r(C)p.r(A)p.r(A)p.d(G)p.d(A)}$$$RNA1{StrandType:ss}|RNA2{StrandType:as}$”, 55.1%. Then “RNA1{r(G)p.r(C)p.r(U)p.r(G)p.r(U)p.r(A)p.r(G)p.r(U)p.r(A)p.r(G)p.r(C)p.r(A)p.r(A)p.r(A)p.r(U)p.r(C)p.r(A)p.r(G)p.r(U)p.d(T)p.d(T)}|RNA2{r(A)p.r(C)p.r(U)p.r(G)p.r(A)p.r(U)p.r(U)p.r(U)p.r(G)p.r(C)p.r(U)p.r(A)p.r(C)p.r(U)p.r(A)p.r(C)p.r(A)p.r(G)p.r(C)p.d(A)p.d(T)}$$$RNA1{StrandType:ss}|RNA2{StrandType:as}$”, with 87.4%. Then “RNA1{r(U)p.r(G)p.r(A)p.r(A)p.r(G)p.r(G)p.r(A)p.r(G)p.r(G)p.r(A)p.r(A)p.r(G)p.r(A)p.r(U)p.r(A)p.r(C)p.r(C)p.r(A)p.r(A)p.d(T)p.d(T)}|RNA2{r(U)p.r(U)p.r(G)p.r(G)p.r(U)p.r(A)p.r(U)p.r(C)p.r(U)p.r(U)p.r(C)p.r(C)p.r(U)p.r(C)p.r(C)p.r(U)p.r(U)p.r(C)p.r(A)p.d(T)p.d(A)}$$$RNA1{StrandType:ss}|RNA2{StrandType:as}$”, with 82.7%; and “RNA1{r(C)p.r(C)p.r(G)p.r(C)p.r(A)p.r(C)p.r(G)p.r(G)p.r(U)p.r(A)p.r(U)p.r(U)p.r(A)p.r(U)p.r(U)p.r(G)p.r(U)p.r(C)p.r(A)p.d(T)p.d(T)}|RNA2{r(U)p.r(G)p.r(A)p.r(C)p.r(A)p.r(A)p.r(U)p.r(A)p.r(A)p.r(U)p.r(A)p.r(C)p.r(C)p.r(G)p.r(U)p.r(G)p.r(C)p.r(G)p.r(G)p.d(A)p.d(G)}$$$RNA1{StrandType:ss}|RNA2{StrandType:as}$”, with 63.3%.
